This passage reports IC50 results from patent US20050143391A1, “Heterocyclic amides with alpha-4 integrin antagonist activity” (J. Uriach Y Compañia S.A., priority 2002, published 2005).

The target of the assay is T1, integrin α4β1 (Homo sapiens, UniProt P05556+P13612).
T1 construct: endogenous in cells; host or cells: Jurkat cells
Briefly: Inhibition of α4β1-dependent cell adhesion (Jurkat cells to peptide CS-1). In kind it is cell-based. The following applies: adhesion of Jurkat cells to CS-1-coated plates; products preincubated with cells at 37° C. for 30 minutes; at least 6 product concentrations. The procedure:
Inhibition of α4β1-Dependent Cell Adhesion
Inhibition of α4β1-dependent cell adhesion was assayed by evaluating the interaction between the peptide CS-1 (H-CLHGPEILDVPST-CONH2) and Jurkat cells (T lymphocyte cell line expressing activated integrin α4β1 but not integrin α4β7) after preincubation of said cells with the compounds of formula I to be tested. The peptide CS-1 was synthesized by conventional solid phase chemistry and purified by HPLC. Its identity was determined by elemental analysis and mass spectroscopy.
1.—Preparation of CS-1-Coated Plates
96-black well plates (Costar 3925) were used. 200 μL of 2% bovine serum albumin solution (BSA, Sigma α4503) was added per well and the plate was incubated for 2 hours at 37° C. The solution was discarded and the plate was washed twice with 200 μL of phosphate buffered saline solution (PBS, Gibco 14190-094) per well. Then, 200 μL of 10 μg/mL N-succinimidyl 3-(2-pyridyldithio)propionate solution (SPDP, Sigma P-3415) was added per well, and the plate was incubated at 37° C. for 30 minutes. The remaining solution was discarded and the plate was twice washed with 200 μL per well of PBS. Next, 200 μL of 25 μg/mL CS-1 peptide solution (equivalent to 5 μg/well) was added per well and the plate was incubated at 37° C. for 2 hours and then overnight at 4° C.
2.—Jurkat Cell Line: Culture and Fluorescent Labelling
Jurkat cells were kept in culture at a density comprised between 2×10^5 and 1.5×10^6 cells/mL in 1640 RPMI medium (Gibco 21875-034) enriched with 10% fetal calf serum (FCS, Gibco 10270-106).
50×10^6 cells were extracted, centrifuged (1200 rpm, 10 min, room temperature) and the medium was discarded. Cells were resuspended in 5 mL of RPMI, and 10 μL of a 1 mM solution of the fluorophore calceine.AM (Molecular Probes, C-3100) was added. The suspension was incubated for 30 min at 37° C. in the darkness, with occasional shaking. 40 mL of RPMI was added to stop the labelling and the suspension was centrifuged (1200 rpm, 10 min, room temperature). The medium was discarded, and the labelled cells were washed with 40 mL of RPMI in order to remove the unincorporated fluorescent probe. Finally, cells were resuspended in RPMI enriched with 10% FCS to obtain a 8×10^6 cells/mL suspension.
The plate previously prepared was twice washed with 200 μL per well of PBS and blocked with 200 μL of 1% BSA for at least 1 hour at room temperature.
The products to be tested were dissolved in dimethylsulfoxide at a concentration of 10 mM and dilutions thereof were prepared in RPMI medium enriched with 10% FCS. The products were preincubated with the Jurkat cells at 37° C. for 30 minutes, at a product concentration comprised between 1 nM and 10 μM, at a cell density of 4×10^6 cells/mL and at a maximal dimethylsulfoxide concentration of 0.1%.
100 μL of the resulting cell-product supsension was added per well (cellular density 4×10^5 cells/well). The product was omitted in the control wells and cells or CS-1 were omitted in the blanks. The plate was incubated for 60 min at room temperature in the-darkness, was twice washed with 200 μL per well of RPMI and then 100 μL of PBS was added. The plate was read with a fluorescence reader at an excitation wavelength of 485 nm and at an emission wavelength of 530 nm.
Maximal adhesion (100%) was determined as the average of the fluorescence intensities (FI) of the control wells, and the minimal adhesion as the average FI of the blanks. The adhesion inhibition percentage was determined using the following formula: [formula]
The results are expressed as the IC50 values (concentration producing 50% inhibition). IC50 values were calculated by testing at least 6 product concentrations and by adjusting the inhibition percentages to a dose-response curve of variable slope.

T1 sequence (P13612 34-1032): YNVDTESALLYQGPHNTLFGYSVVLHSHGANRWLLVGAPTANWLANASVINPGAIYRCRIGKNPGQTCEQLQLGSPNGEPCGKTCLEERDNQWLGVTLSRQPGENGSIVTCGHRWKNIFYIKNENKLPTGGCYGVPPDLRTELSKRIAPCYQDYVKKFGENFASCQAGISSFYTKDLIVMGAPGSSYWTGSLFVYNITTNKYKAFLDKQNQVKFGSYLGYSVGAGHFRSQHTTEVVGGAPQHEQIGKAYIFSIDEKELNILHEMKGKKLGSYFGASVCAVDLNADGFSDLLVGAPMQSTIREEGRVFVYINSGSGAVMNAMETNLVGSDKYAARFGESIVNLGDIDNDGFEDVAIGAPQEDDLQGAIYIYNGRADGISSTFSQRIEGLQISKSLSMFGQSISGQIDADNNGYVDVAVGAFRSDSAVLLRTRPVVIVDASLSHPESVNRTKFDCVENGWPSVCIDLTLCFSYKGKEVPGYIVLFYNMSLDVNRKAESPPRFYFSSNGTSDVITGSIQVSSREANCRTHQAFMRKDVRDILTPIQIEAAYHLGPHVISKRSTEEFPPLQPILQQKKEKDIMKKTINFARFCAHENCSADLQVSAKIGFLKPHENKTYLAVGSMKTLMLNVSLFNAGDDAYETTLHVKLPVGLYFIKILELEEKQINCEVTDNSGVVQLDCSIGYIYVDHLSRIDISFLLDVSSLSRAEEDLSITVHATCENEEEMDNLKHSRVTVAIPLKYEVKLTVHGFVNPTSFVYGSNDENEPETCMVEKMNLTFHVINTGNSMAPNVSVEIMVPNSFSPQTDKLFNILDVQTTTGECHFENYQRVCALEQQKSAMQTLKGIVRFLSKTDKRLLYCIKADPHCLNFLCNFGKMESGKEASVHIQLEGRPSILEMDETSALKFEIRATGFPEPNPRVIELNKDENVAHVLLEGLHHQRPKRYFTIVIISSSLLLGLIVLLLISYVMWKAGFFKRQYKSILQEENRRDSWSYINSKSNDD
T1 sequence (P05556 21-798): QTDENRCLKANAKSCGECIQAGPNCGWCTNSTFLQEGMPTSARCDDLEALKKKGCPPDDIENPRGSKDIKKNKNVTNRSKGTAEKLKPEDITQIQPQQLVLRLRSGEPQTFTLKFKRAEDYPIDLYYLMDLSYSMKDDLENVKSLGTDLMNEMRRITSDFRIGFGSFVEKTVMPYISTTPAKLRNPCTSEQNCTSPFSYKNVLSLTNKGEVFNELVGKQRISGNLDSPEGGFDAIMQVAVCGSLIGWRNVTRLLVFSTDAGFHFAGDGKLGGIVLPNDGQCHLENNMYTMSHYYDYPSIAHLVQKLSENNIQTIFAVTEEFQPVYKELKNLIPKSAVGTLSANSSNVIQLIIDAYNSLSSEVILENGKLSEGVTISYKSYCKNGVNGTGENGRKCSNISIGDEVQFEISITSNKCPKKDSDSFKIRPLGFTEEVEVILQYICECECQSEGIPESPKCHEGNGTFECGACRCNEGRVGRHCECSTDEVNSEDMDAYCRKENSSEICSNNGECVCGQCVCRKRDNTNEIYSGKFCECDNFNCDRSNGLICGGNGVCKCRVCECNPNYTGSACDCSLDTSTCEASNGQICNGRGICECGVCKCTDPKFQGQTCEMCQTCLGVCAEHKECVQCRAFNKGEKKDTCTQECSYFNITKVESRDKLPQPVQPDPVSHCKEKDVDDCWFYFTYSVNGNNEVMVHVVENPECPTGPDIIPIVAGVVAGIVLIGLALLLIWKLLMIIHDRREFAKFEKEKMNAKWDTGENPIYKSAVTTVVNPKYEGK

Take `CC(C)NC(=S)NCC1CCN(C(=O)CC[C@H](NC(=O)[C@@H]2CCCN2S(=O)(=O)c2cc(Cl)cc(Cl)c2)C(=O)O)CC1` [Example 58, (2S)-2-[1-(3,5-Dichlorophenylsulfonyl)-L-prolylamino]-5-[4-[(N′-isopropylthioureido)methyl]piperidin-1-yl]-5-oxopentanoic Acid]: the IC50 is 166 nM.

Turning to `Cc1nc2cnccc2n1CC1CCN(C(=O)NC[C@H](NC(=O)[C@@H]2CCCN2S(=O)(=O)c2cc(Cl)cc(Cl)c2)C(=O)O)CC1` [Example 89, (2S)-2-[1-(3,5-Dichlorophenylsulfonyl)-L-prolyl]amino-3-[[4-(2-methylimidazo[4,5-c]pyridin-1-ylmethyl)piperidin-1-ylcarbonyl]amino]propionic Acid], the IC50 was determined as 7.7 nM.

Consider `Cc1ccc(S(=O)(=O)N2CCC[C@H]2C(=O)N[C@@H](CCC(=O)N2CCC(CN3Cc4ccccc4C3=O)CC2)C(=O)O)cc1` [Example 76, (2S)-5-Oxo-5-[4-(1-oxoisoindolin-2-ylmethyl)piperidin-1-yl]-2-[[1-tosyl-L-prolyl]amino]pentanoic Acid], for which 67 nM corresponded to half-maximal inhibition (IC50).

Consider `CC(C)Nc1nc2cnccc2n1CC1CCN(C(=O)CC[C@H](NC(=O)[C@@H]2CCCN2S(=O)(=O)c2cc(Cl)cc(Cl)c2)C(=O)O)CC1` [Example 87, (2S)-2-[1-(3,5-Dichlorophenylsulfonyl)-L-prolylamino]-5-[(2-isopropylaminoimidazo[4,5-c]pyridin-1-ylmethyl)piperidin-1-yl]-5-oxopentanoic Acid], for which the IC50 worked out at 14.1 nM.

On to `CCN(CC)CC1CCN(C(=O)CC[C@H](NC(=O)[C@@H]2CCCN2S(=O)(=O)c2cc(Cl)cc(Cl)c2)C(=O)O)CC1` [Example 88, (2S)-2-[1-(3,5-Dichlorophenylsulfonyl)-L-prolylamino]-5-[4-(diethylaminomethyl)piperidin-1-yl]-5-oxopentanoic Acid], for which the IC50 was 83.9 nM.

Compound `CN(C)CC1CCN(C(=O)OC[C@H](NC(=O)[C@@H]2CCCN2S(=O)(=O)c2cc(Cl)cc(Cl)c2)C(=O)O)CC1` [Example 98, (2S)-2-[1-(3,5-Dichlorophenylsulfonyl)-L-prolyl]amino-3-[4-(dimethylaminomethyl)piperidin-1-ylcarbonyloxy]propionic Acid] had a half-maximal inhibitory concentration (IC50) of 17.7 nM.

Consider `O=C(O)[C@H](CCC(=O)N1CCC(COc2ccncc2)CC1)NC(=O)[C@@H]1CCCN1S(=O)(=O)c1cc(Cl)cc(Cl)c1` [Example 102, (2S)-2-[1-(3,5-Dichlorophenylsulfonyl)-L-prolylamino]-5-oxo-5-[4-(4-pyridyloxymethyl)piperidin-1-yl]pentanoic Acid], for which half-maximal inhibition (IC50) required 305 nM.

`CCc1nc2c(C)cc(C)nc2n1CCC1CCN(C(=O)CC[C@H](NC(=O)[C@@H]2CCCN2S(=O)(=O)c2cc(Cl)cc(Cl)c2)C(=O)O)CC1` [Example 59, (2S)-2-[1-(3,5-Dichlorophenylsulfonyl)-L-prolylamino]-5-[4-[2-(2-ethyl-5,7-dimethylimidazo[4,5-b]pyridin-3-yl)ethyl]piperidin-1-yl]-5-oxopentanoic Acid] displayed an IC50 of 13.3 nM.

Compound `O=C(O)[C@H](CCC(=O)N1CCC(CNC(=O)N2CCOCC2)CC1)NC(=O)[C@@H]1CCCN1S(=O)(=O)c1cc(Cl)cc(Cl)c1` [Example 67, (2S)-2-[1-(3,5-Dichlorophenylsulfonyl)-L-prolylamino]-5-[4-(4-morpholinylcarbonylaminomethyl)piperidin-1-yl]-5-oxopentanoic Acid] displayed a concentration for half-maximal inhibition (IC50) of 33 nM.

`COCCNC(=O)OCCC1CCN(C(=O)CC[C@H](NC(=O)[C@@H]2CCCN2S(=O)(=O)c2cc(Cl)cc(Cl)c2)C(=O)O)CC1` [Example 66]: the IC50 was 3.5 nM.

`Cc1ccc(S(=O)(=O)N2CCC[C@H]2C(=O)N[C@@H](CCC(=O)N2CCC(Cn3c(C)nc4cnccc43)CC2)C(=O)O)cc1` [Example 73, (2S)-5-[4-(2-Methylimidazo[4,5-c]pyridin-1-ylmethyl)piperidin-1-yl]-5-oxo-2-[1-tosyl-L-prolylamino]pentanoic Acid] yielded a concentration for half-maximal inhibition (IC50) of 57 nM.

The term IC50 denotes the point on the concentration scale where inhibition reaches its midpoint. Read a high IC50 as lower potency.
